The target of experiment [1] is cloned human NR1/NR2B ion channels (Homo sapiens (Human), UniProt Q05586+Q13224). Description: HNR2BC: calcium influx assay on cloned human NR1/NR2B ion channels expressed in HEK cells. Type of experiment: cell-based. The note with it: HEK cells hNR1/NR2B, 100 μM glutamate + 100 μM glycine, 3 parameter plot. How it is done:
HNR2BC: Effects of Test Articles on Cloned Human NR1/NR2B Ion Channels Expressed in Mammalian Cells
The ability of test compounds to act as an antagonist of NR1/NR2B were evaluated with a calcium influx assay (Calcium 5 Assay Kit, Molecular Devices).
For the antagonist assessment, NR1/NR2B was activated with the positive control agonist (Mg^2+-free HBPS+100 μM glutamic acid+100 μM glycine). The effect of each test article to inhibit the signal was examined after agonist stimulation and compared to the positive control antagonist (MK-801).
A HEK cell line, stable transfected with hNR1/NR2B was used. This tetracycline inducible cell line is transfected with GRIN1 (GeneBank accession number NM 007327.2) and GRIN2B (GeneBank accession number NM_000834.3.). The cells were cultured in cell culture flasks with DMEM/F12 supplemented with 10% FCS, 1% PenStrep and a selection of additional antibiotics.
Forty-Eight (48) hours before the assay the cells were plated into 96-well black well, flat clear bottom microtiter plates at a density of 50000 cells/well. Twenty-Four (24) hours later the receptor expression was induced by the addition of 1 μg/ml tetracycline in the presence of 2 mM ketamine and 200 μM 7-CKA. After 24 h of receptor induction the plates were used for the assay.
The medium was removed and the cells were loaded with 200 μl loading buffer (Molecular Devices) in Mg2+-free HBPS containing 100 μM 7-CKA at 37° C. for one (1) hour.
The test compounds were then solubilized in 100% DMSO and diluted to yield eight (8) different concentrations in 100% DMSO. A 96 well drug plate was prepared by diluting with water and glycine/glutamate to a 5-fold of final test concentration. Fluorescence intensity of the cells in the plate was measured in a FlexStation using an excitation wavelength of 485 nm and an emission wavelength of 525 nm. Twenty (20) seconds after starting the recordings the compounds together with the agonists glycine (100 μM) and glutamate (100 μM) were added into the wells and the fluorescence measured for ninety (90) seconds in summary.
The IC50 values provided in the paragraph below were determined using a 3 parameter plot.

The target of the next experiment is hERG-receptor (Homo sapiens (Human), UniProt Q12809). Description: HERGBD: inhibition of specific 3H-Dofetilide binding to the hERG-receptor. The note with it: HEK cell membranes with human ERG, Hill-plot 2-parameter-model. An outline of the steps:
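Membranes from HEK cells stably expressing human ERG incubated 90 min at RT with 1.5 nmol/l 3H-dofetilide in 20 mM HEPES/0.1 mM KCl pH 7.2, inhibitor in 1% DMSO. Nonspecific binding with […] dofetilide; bound ligand separated by filtration and scintillation counted.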
In general terms: Block of hERG is tested as a sign of cardiac risk.

Experiment [2] concerns the target T1, rat NR1/NR2B receptor (Rattus norvegicus (Rat), UniProt P35439+Q00960). The experiment can be described thus: RRNR2BB: inhibition of specific binding to the rat NR1/NR2B receptor. The note with it: [3H]-Ifenprodil binding, rat brain membranes, Hill-plot 2-parameter-model. An outline of the steps:
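Washed membranes from male Wistar rat forebrain (whole brain minus cerebellum) in 5 mM Tris/1 mM EDTA pH 7.4 used in ifenprodil-site binding, 60 min at 4° C. Nonspecific binding defined with […] CP101.606; bound separated by filtration on PEI-soaked filters. IC50 from Hill plot, 2-parameter model.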

Experiment [3] deals with T1, rat NR1/NR2B receptor. The experiment can be described thus: NR2B binding assay: inhibition of specific [3H]-Ifenprodil binding to the rat NR1/NR2B receptor. The note with it: rat brain membranes, Hill-plot 2-parameter-model. An outline of the steps: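 Binding ran 60 min at 4 °C on washed membranes from male Wistar rat brain without cerebellum, in 5 mM Tris/1 mM EDTA, pH 7.4, and was ended by filtration through polyethylene-imine-presoaked filters. […] CP101.606 defined nonspecific binding.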

A word on the IC50: it is the point on the concentration scale where inhibition reaches its midpoint.

Chain of hERG-receptor (Q12809 whole entry): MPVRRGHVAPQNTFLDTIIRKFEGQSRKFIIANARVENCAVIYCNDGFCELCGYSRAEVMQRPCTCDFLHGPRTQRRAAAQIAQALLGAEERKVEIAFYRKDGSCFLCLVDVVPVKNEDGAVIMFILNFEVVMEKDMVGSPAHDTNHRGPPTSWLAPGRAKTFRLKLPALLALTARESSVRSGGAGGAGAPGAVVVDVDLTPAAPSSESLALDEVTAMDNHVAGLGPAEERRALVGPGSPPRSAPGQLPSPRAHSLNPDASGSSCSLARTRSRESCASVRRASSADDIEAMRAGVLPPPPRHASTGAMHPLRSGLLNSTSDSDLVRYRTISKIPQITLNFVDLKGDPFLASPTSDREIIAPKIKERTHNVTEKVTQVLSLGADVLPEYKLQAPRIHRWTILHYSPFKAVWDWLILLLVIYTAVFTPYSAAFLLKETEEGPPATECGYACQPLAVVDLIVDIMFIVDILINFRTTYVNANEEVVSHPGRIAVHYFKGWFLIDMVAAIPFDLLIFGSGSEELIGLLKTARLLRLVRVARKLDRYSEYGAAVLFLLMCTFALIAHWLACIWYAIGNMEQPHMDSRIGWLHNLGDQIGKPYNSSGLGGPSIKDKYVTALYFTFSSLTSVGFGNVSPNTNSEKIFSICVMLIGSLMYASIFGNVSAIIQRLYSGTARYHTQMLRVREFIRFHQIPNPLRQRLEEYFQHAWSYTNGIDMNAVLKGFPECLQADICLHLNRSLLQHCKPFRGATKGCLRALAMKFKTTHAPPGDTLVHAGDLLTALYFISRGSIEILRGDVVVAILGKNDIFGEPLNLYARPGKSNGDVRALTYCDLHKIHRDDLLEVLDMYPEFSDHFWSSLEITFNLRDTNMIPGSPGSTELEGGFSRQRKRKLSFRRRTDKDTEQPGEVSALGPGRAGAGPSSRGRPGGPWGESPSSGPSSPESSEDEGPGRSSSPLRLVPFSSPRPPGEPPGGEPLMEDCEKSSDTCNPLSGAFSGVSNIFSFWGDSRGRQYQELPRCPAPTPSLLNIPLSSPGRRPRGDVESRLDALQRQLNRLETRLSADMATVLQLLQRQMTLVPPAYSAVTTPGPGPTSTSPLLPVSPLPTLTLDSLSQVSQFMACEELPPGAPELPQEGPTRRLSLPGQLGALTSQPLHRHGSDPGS
Chain of cloned human NR1/NR2B ion channels (Q13224 27-1484, other chains not shown): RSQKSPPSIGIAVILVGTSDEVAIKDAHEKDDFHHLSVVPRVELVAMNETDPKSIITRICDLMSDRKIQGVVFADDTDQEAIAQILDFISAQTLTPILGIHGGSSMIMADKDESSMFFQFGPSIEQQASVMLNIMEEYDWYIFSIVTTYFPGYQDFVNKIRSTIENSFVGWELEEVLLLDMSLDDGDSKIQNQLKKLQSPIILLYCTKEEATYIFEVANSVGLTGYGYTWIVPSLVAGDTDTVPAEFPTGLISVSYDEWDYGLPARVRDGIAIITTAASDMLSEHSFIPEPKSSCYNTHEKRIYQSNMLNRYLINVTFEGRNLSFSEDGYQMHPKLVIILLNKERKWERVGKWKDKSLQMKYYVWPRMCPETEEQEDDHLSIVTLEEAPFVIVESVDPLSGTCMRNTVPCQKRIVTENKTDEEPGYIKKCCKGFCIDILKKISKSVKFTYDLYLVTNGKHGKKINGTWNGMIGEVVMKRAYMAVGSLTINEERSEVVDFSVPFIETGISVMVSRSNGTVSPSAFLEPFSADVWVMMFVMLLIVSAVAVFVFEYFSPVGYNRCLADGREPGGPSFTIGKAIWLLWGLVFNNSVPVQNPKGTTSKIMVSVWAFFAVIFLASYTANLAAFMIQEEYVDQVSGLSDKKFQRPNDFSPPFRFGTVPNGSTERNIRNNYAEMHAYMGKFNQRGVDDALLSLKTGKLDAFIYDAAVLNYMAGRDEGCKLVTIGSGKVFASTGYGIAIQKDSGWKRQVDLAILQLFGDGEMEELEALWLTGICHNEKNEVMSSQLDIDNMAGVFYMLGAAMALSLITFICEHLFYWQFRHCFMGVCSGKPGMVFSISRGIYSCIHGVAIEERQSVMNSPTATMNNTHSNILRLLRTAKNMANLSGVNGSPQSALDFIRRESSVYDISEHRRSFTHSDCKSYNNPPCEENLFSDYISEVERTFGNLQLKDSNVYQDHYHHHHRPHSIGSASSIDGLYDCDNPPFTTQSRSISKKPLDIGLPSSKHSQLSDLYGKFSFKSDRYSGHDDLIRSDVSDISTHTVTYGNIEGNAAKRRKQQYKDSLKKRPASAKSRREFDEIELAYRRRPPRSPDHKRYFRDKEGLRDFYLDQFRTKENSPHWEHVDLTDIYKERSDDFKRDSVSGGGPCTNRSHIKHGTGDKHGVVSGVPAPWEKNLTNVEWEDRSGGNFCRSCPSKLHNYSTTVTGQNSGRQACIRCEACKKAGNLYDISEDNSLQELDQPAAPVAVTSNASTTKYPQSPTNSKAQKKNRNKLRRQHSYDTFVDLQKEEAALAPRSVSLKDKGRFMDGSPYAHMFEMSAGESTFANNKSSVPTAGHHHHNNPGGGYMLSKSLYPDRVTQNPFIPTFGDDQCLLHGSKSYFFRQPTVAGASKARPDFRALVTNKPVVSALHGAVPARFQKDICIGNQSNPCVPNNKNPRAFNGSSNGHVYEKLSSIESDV
T1 sequence (Q00960 27-1482, other chains not shown): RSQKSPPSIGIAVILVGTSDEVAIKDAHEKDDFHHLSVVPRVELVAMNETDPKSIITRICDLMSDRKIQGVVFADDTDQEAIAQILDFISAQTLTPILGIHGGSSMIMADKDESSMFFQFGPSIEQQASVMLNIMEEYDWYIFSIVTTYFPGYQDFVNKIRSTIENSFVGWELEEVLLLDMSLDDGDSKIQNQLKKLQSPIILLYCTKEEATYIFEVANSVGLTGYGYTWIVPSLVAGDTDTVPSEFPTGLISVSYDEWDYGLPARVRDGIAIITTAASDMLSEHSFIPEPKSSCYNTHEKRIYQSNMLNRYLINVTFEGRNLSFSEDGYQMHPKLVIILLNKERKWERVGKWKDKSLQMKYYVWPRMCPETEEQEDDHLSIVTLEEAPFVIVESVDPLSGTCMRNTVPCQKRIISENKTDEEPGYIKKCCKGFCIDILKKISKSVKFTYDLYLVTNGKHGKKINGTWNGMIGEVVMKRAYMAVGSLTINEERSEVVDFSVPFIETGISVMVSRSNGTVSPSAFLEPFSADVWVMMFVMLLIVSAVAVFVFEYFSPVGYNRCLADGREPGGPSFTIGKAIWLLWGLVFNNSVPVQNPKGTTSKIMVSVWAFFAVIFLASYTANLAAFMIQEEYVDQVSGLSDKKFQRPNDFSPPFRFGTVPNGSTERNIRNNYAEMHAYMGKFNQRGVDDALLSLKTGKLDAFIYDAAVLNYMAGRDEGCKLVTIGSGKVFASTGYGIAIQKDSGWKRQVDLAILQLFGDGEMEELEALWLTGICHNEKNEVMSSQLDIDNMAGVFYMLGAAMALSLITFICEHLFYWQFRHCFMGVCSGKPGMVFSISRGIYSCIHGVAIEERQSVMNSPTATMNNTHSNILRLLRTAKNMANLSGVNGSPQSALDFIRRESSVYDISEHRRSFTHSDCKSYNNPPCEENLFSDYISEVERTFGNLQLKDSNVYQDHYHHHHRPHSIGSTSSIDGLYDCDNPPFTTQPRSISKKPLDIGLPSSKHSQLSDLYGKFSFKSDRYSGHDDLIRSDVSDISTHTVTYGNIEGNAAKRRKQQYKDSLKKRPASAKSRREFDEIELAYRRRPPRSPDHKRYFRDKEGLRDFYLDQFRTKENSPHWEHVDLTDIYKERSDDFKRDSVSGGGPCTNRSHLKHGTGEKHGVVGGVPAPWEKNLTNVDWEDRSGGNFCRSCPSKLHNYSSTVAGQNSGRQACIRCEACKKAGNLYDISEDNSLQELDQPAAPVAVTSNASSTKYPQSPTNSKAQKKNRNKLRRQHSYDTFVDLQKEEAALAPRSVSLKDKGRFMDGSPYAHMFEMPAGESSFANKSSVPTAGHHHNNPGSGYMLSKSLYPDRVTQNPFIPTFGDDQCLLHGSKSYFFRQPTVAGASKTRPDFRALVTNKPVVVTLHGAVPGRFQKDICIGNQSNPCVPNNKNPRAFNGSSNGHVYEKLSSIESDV

On to `CC(C)c1nccn1Cc1cn(-c2ccc(Cl)c(OC(F)F)c2)nn1` [Example 97, 1-(4-Chloro-3-difluoromethoxy-phenyl)-4-(2-isopropyl-imidazol-1-ylmethyl)-1H-[1,2,3]triazole], for which, in experiment [1], the IC50 was found to be 0.58 µM.
In the case of `Nc1nccn1Cc1cn(-c2cc(F)cc(C(F)F)c2)nn1` [Example 111, 4-(2-amino-imidazol-1-ylmethyl)-1-(3-fluoro-5-difluoromethyl-phenyl)-1H-[1,2,3]triazole], the IC50 was 3.29 µM at hERG-receptor and 3.42 µM in experiment [1].
Turning to `CCc1nccn1Cc1cn(-c2ccc(F)c(Cl)c2)nn1` [Example 42, 1-(3-Chloro-4-fluoro-phenyl)-4-(2-ethyl-imidazol-1-ylmethyl)-1H-[1,2,3]triazole], in experiment [1], the IC50 was 3.17 µM.
Still for that read-out and setting: the value for `Fc1ccc(-n2cc(Cc3cc[nH]n3)nn2)cc1C(F)F` [Example 115, 1-(3-difluoromethyl-4-fluoro-phenyl)-4-(1H-pyrazol-3-ylmethyl)-1H-[1,2,3]triazole] was 10.5 µM.
For the molecule `Cc1nccn1Cc1cn(-c2cccc(C(F)(F)F)c2)nn1` [Example 58, 4-(2-Methyl-imidazol-1-ylmethyl)-1-(3-trifluoromethyl-phenyl)-1H-[1,2,3]triazole], the results for the IC50 on rat NR1/NR2B receptor [2], at rat NR1/NR2B receptor [3] and at hERG-receptor were 0.0174 µM, 0.0174 µM and 15 µM, respectively.
For `CC(C)c1nccn1Cc1cn(-c2ccc(Cl)c(C(F)F)c2)nn1` [Example 92, 1-(4-Chloro-3-difluoromethyl-phenyl)-4-(2-isopropyl-imidazol-1-ylmethyl)-1H-[1,2,3]triazole], the half-inhibitory concentration (IC50) is 0.00524 µM on rat NR1/NR2B receptor [2], 0.00524 µM at rat NR1/NR2B receptor [3] and 11.3 µM at hERG-receptor.
Turning to `Cc1nccn1Cc1cn(-c2ccc(C(F)(F)F)cc2)nn1` [Example 59, 4-(2-Methyl-imidazol-1-ylmethyl)-1-(4-trifluoromethyl-phenyl)-1H-[1,2,3]triazole], the IC50 at rat NR1/NR2B receptor [2] was 0.046 µM; on rat NR1/NR2B receptor [3], 0.046 µM; at hERG-receptor, 6.27 µM.
On to `Cc1ccc(C(=O)c2nccn2Cc2cn(-c3ccc(Cl)cc3)nn2)cc1` [Example 116, [1-[[1-(4-chlorophenyl)triazol-4-yl]methyl]imidazol-2-yl]-(p-tolyl)methanone], for which the values for the half-inhibitory concentration (IC50) (at rat NR1/NR2B receptor [2]; in experiment [1]) were greater than 5 µM and 22.4 µM, respectively.
Consider `FCCc1nccn1Cc1cn(-c2ccc(Cl)c(OC(F)F)c2)nn1` [Example 99, 1-(4-Chloro-3-difluoromethoxy-phenyl)-4-[2-(2-fluoro-ethyl)-imidazol-1-ylmethyl]-1H-[1,2,3]triazole], for which the IC50 was determined as 0.00602 µM at rat NR1/NR2B receptor [2], 0.00602 µM at rat NR1/NR2B receptor [3] and 23.8 µM on hERG-receptor.

The values are drawn from patent US9981950B2, “Triazoles as NR2B receptor inhibitors” (Janssen Pharmaceuticals, Inc., priority 2014, dated 2018).
